Test results as given in the supplement of paper PMC5908809.

Legend:
NK-YS (IL-2 2.5 ng/mL) [1] = assay: drug sensitivity score (DSS) (DSS units); higher = more sensitive; extreme values may be limits of the assay; conditions: 72 h
[2] = tested on: normal primary NK cells, pool 2 (3 donors) (IL-2 2.5 ng/mL); assay: as above; conditions: 72 h
NK-92 (IL-2 2.5 ng/mL) [3] = assay: as above; conditions: 72 h
KAI3 (IL-2 2.5 ng/mL) [4] = assay: as above; conditions: 72 h
YT (IL-2 2.5 ng/mL) [5] = assay: as above; conditions: 72 h
[6] = tested on: normal primary NK cells, pool 1 (3 donors), resting (IL-2 0 ng/mL); assay: as above; conditions: 72 h
NKL (IL-2 2.5 ng/mL) [7] = assay: as above; conditions: 72 h
[8] = tested on: normal primary NK cells, pool 1 (3 donors) (IL-2 2.5 ng/mL); assay: as above; conditions: 72 h
[9] = tested on: normal primary NK cells, pool 3 (3 donors) (IL-2 2.5 ng/mL); assay: as above; conditions: 72 h
IMC-1 (IL-2 20 ng/mL) [10] = assay: as above; conditions: 72 h
SNK-6 (IL-2 2.5 ng/mL) [11] = assay: as above; conditions: 72 h
KHYG-1 (IL-2 2.5 ng/mL) [12] = assay: as above; conditions: 72 h
DERL-7 (IL-2 2.5 ng/mL) [13] = assay: as above; conditions: 72 h
[14] = tested on: normal NK cells expanded with K562-aAPC; assay: as above; conditions: 72 h; IL-2 2.5 ng/mL
Method: (§1)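 Drug sensitivity and resistance testing on K562-aAPC-expanded normal NK cells: 5 concentrations (10-fold steps over a 10,000-fold range), 72 h at 37 °C, viability by CellTiter-Glo normalised to DMSO and benzethonium chloride controls; DSS from the fitted curve.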

NK-YS (IL-2 2.5 ng/mL) [15] = assay: percent inhibition of viability; higher = more inhibition; conditions: 72 h
[16] = tested on: normal primary NK cells, pool 2 (3 donors) (IL-2 2.5 ng/mL); assay: as above; conditions: 72 h
NK-92 (IL-2 2.5 ng/mL) [17] = assay: as above; conditions: 72 h
KAI3 (IL-2 2.5 ng/mL) [18] = assay: as above; conditions: 72 h
YT (IL-2 2.5 ng/mL) [19] = assay: as above; conditions: 72 h
[20] = tested on: normal primary NK cells, pool 1 (3 donors), resting (IL-2 0 ng/mL); assay: as above; conditions: 72 h
NKL (IL-2 2.5 ng/mL) [21] = assay: as above; conditions: 72 h
[22] = tested on: normal primary NK cells, pool 1 (3 donors) (IL-2 2.5 ng/mL); assay: as above; conditions: 72 h
[23] = tested on: normal primary NK cells, pool 3 (3 donors) (IL-2 2.5 ng/mL); assay: as above; conditions: 72 h
IMC-1 (IL-2 20 ng/mL) [24] = assay: as above; conditions: 72 h
SNK-6 (IL-2 2.5 ng/mL) [25] = assay: as above; conditions: 72 h
KHYG-1 (IL-2 2.5 ng/mL) [26] = assay: as above; conditions: 72 h
DERL-7 (IL-2 2.5 ng/mL) [27] = assay: as above; conditions: 72 h
[28] = tested on: normal NK cells expanded with K562-aAPC; assay: as above; conditions: 72 h, IL-2 2.5 ng/mL
Method: as §1

Cc1cc(Nc2cc(N3CCN(C)CC3)nc(/C=C/c3ccccc3)n2)n[nH]1 [ENMD-2076] (max concentration tested 10000 nM)
Conditions | drug sensitivity score
DERL-7 (IL-2 2.5 ng/mL) [13] | 15
IMC-1 (IL-2 20 ng/mL) [10] | 14.2
KAI3 (IL-2 2.5 ng/mL) [4] | 18.1
KHYG-1 (IL-2 2.5 ng/mL) [12] | 15.4
NK-92 (IL-2 2.5 ng/mL) [3] | 11.8
NK-YS (IL-2 2.5 ng/mL) [1] | 15.4
NKL (IL-2 2.5 ng/mL) [7] | 14
SNK-6 (IL-2 2.5 ng/mL) [11] | 12.2
YT (IL-2 2.5 ng/mL) [5] | 10.1
[2] | 9.3
[6] | 7.17
[8] | 8.98
[9] | 7.76
[14] | 12.9

percent inhibition of viability [%]
Conditions | 1 nM | 10 nM | 100 nM | 1000 nM | 10000 nM
DERL-7 (IL-2 2.5 ng/mL) [27] | -3.97 | 1.55 | 8.93 | 73.3 | 100
IMC-1 (IL-2 20 ng/mL) [24] | 5.76 | 6.97 | 6.68 | 69 | 99.3
KAI3 (IL-2 2.5 ng/mL) [18] | 11.4 | 13.8 | 24.2 | 81.2 | 103
KHYG-1 (IL-2 2.5 ng/mL) [26] | 3.13 | 4.35 | 5.27 | 79.3 | 103
NK-92 (IL-2 2.5 ng/mL) [17] | 11.8 | 8.87 | 7.47 | 52.2 | 100
NK-YS (IL-2 2.5 ng/mL) [15] | 4 | 7.48 | 10.6 | 76.2 | 84.6
NKL (IL-2 2.5 ng/mL) [21] | 2.47 | 5.63 | 17.7 | 61.2 | 96.1
SNK-6 (IL-2 2.5 ng/mL) [25] | 5.5 | 2.27 | -27.8 | 68.5 | 79.8
YT (IL-2 2.5 ng/mL) [19] | 5.28 | 5.36 | 3.17 | 31.5 | 101
[16] | -1.71 | 3 | 0.94 | 31 | 89.3
[20] | -0.34 | -9.97 | -7.43 | 16.7 | 80.9
[22] | -3.71 | -10.8 | -1.53 | 25 | 93.9
[23] | -2.94 | -6.14 | -2.82 | 14.7 | 96.1
[28] | 2.38 | -3.79 | 7 | 60.5 | 99.8

C#Cc1cccc(Nc2ncnc3cc(OCCOC)c(OCCOC)cc23)c1 [Erlotinib] (max concentration tested 10000 nM)
Conditions | drug sensitivity score
DERL-7 (IL-2 2.5 ng/mL) [13] | 2.71
IMC-1 (IL-2 20 ng/mL) [10] | 1.94
KAI3 (IL-2 2.5 ng/mL) [4] | 6.03
KHYG-1 (IL-2 2.5 ng/mL) [12] | 4.03
NK-92 (IL-2 2.5 ng/mL) [3] | 7.75
NK-YS (IL-2 2.5 ng/mL) [1] | 1.63
NKL (IL-2 2.5 ng/mL) [7] | 3.76
SNK-6 (IL-2 2.5 ng/mL) [11] | 5.2
YT (IL-2 2.5 ng/mL) [5] | 4.27
[2] | 2.92
[6] | 2.81
[8] | 0.64
[9] | 0.89
[14] | 4.14

percent inhibition of viability [%]
Conditions | 1 nM | 10 nM | 100 nM | 1000 nM | 10000 nM
DERL-7 (IL-2 2.5 ng/mL) [27] | 0.1 | -2.35 | -1.33 | 1.39 | 48.4
IMC-1 (IL-2 20 ng/mL) [24] | 1.33 | 9.48 | 7.46 | 12.3 | 22.8
KAI3 (IL-2 2.5 ng/mL) [18] | 1.13 | 8.32 | -5.25 | 20 | 58.5
KHYG-1 (IL-2 2.5 ng/mL) [26] | 3.49 | 6.34 | 8.19 | 9.39 | 47.6
NK-92 (IL-2 2.5 ng/mL) [17] | 9.74 | 4.56 | 24.3 | 25.9 | 43.1
NK-YS (IL-2 2.5 ng/mL) [15] | 1.58 | 1.15 | 0.89 | 5.14 | 24.1
NKL (IL-2 2.5 ng/mL) [21] | 5.31 | 4.23 | 11.4 | 14.5 | 38.5
SNK-6 (IL-2 2.5 ng/mL) [25] | 7.98 | 8.62 | 18.3 | 17.6 | 32.2
YT (IL-2 2.5 ng/mL) [19] | 8.58 | 6.57 | 10.3 | 17.4 | 38.6
[16] | -6.62 | -1.77 | 13.4 | 4.86 | 41.7
[20] | -2.01 | -10.5 | -8.04 | -1.92 | 55.7
[22] | 0.75 | -3.53 | 2.15 | -7.62 | 24.8
[23] | -5.26 | -4.35 | 6.24 | -3.65 | 27.2
[28] | 0.68 | 3.68 | 2.85 | 12.2 | 44.6
